The source of these data is patent US7704995B2 (Exelixis, Inc., priority 2003, dated 2010).

A value given as a limit tells only on which side of the number the result lay.

What all share (experiment): Kinase specificity assay (33P phosphoryl transfer, LCCA or AlphaScreen)
Holding throughout (assay type): biochemical

One experiment has as its target EMK (Homo sapiens, UniProt Q7KZI7). As to conditions: ATP close to KM; read-out: EMK inhibition, IC50. The procedure: (§1) Kinase activity and compound inhibition are investigated using one or more of the three assay formats described below. The ATP concentrations for each assay are selected to be close to the Michaelis-Menten constant (KM) for each individual kinase. Dose-response experiments are performed at 10 different inhibitor concentrations in a 384-well plate format. The data are fitted to the following four-parameter equation: Y=Min+(Max−Min)/(1+(X/IC50)^H) where Y is the observed signal, X is the inhibitor concentration, Min is the background signal in the absence of enzyme (0% enzyme activity), Max is the signal in the absence of inhibitor (100% enzyme activity), IC50 is the inhibitor concentration at 50% enzyme inhibition and H represents the empirical Hill's slope to measure the cooperativity. Typically H is close to unity. ^33P Phosphoryl Transfer Assay:
(§2) Greiner 384-well white, clear bottom, high binding plates are coated with 2 μg/well of protein or peptide substrate in a 50 μL volume overnight at ambient temperature. The coating buffer typically contains 40 μg/mL substrate, 22.5 mM Na2CO3, 27.5 mM NaHCO3, 150 mM NaCl and 3 mM NaN3. The coating solution is aspirated and the plates are washed once with 50 μL of assay buffer and padded dry. Subsequently compounds and enzymes are mixed with γ^33P-ATP (3.3 μCi/nmol) in a total volume of 20 uL in suitable assay buffers. The mixture is incubated at ambient temperature for 1.5-2.5 hrs and terminated by aspiration using a Molecular Devices EMBLA 96-head plate washer. The plates are subsequently washed 6-12 times with PBST or TBS buffer. Scintillation fluid (50 μl/well) is then added, the plates are sealed and activity assessed by liquid scintillation spectrometry using a Perkin Elmer MicroBeta TriLux.
(§3) In the LCCA assays, kinase activity is measured as the percent ATP consumed following the kinase reaction using luciferase-luciferin-coupled chemiluminescence. Greiner 384-well white, clear bottom, medium binding plates are used for LCCA. Briefly, the kinase reaction is initiated by mixing compounds, ATP and kinase in a 20 uL volume. The mixture is incubated at ambient temperature for 2-4 hrs. At the end of the kinase reaction, a 20 uL luciferase-luciferin mix is added and the chemiluminescent signal is read using a Wallac Victor^2 reader. The luciferase-luciferin mix consists of 50 mM HEPES, pH 7.8, 8.5 ug/mL oxalic acid (pH 7.8), 5 (or 50) mM DTT, 0.4% Triton X-100, 0.25 mg/mL coenzyme A, 63 uM AMP, 28 ug/mL luciferin and 40,000 units of light/mL luciferase. For the LCCA assays, total ATP consumption has been standardized to 25-45% and the IC50 values correlates well with those determined by radiometric assays.
(§4) AlphaScreen technology is a proximity assay which utilizes the increase in fluorescent signal when donor and acceptor beads are close in proximity. Biotinylated poly(Glu,Tyr) 4:1 is used as the kinase substrate, in conjunction with streptavidin-coated donor beads and anti-phosphortyrosine antibody PY100-coated acceptor beads. Upon phosphorylation, the peptide substrate can bind to both donor and acceptor beads giving rise to an increase in fluorescence. Compounds, ATP, biotinylated poly(Glu, Tyr) and kinases are mixed in a volume of 20 uL for 1 hr at ambient temperature using Greiner 384-well white clear bottom medium binding plates. Following incubation a 10 uL solution containing […] AlphaScreen beads, 75 mM Hepes, pH 7.4, 300 mM NaCl, 120 mM EDTA, 0.3% BSA and 0.03% Tween-20 is added to each well. After 2-16 hr incubation of the beads, plates are read in a Perkin Elmer AlphaQuest reader. The IC50 values correlates well with those of radiometric assays.

A further experiment has as its target EphA2R (Homo sapiens, UniProt P29317). The following applies: ATP close to KM; read-out: EphA2R inhibition, IC50. As for the experimental part: as §1, §2, §3, §4
Another experiment concerns the target T1, EphB4 (Homo sapiens, UniProt P54760).
T1 sequence (P54760 16-987): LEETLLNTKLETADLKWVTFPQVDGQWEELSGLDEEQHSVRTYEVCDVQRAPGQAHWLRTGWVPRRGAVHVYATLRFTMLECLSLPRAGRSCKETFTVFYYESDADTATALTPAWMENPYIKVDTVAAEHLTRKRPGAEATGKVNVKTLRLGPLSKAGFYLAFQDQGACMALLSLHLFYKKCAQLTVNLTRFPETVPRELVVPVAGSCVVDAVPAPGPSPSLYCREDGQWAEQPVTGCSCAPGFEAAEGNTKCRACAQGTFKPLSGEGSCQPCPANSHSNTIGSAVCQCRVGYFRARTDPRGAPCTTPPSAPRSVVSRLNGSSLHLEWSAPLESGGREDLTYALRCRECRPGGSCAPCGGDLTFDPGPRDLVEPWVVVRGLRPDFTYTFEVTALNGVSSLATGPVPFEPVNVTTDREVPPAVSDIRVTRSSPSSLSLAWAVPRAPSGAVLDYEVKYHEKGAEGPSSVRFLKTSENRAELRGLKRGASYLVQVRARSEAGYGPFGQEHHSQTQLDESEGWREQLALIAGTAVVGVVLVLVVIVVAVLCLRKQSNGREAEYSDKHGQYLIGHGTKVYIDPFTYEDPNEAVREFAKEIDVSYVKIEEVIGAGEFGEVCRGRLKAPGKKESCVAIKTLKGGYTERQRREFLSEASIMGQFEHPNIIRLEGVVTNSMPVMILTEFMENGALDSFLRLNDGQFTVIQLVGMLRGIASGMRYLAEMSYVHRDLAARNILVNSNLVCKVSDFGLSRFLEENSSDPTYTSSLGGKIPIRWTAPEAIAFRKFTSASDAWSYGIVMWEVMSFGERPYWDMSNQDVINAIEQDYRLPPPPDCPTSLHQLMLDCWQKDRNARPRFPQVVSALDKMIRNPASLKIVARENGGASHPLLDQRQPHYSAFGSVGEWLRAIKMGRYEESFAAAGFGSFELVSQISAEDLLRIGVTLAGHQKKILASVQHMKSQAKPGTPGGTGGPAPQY
The following applies: ATP close to KM; read-out: EphB4 inhibition, IC50. The procedure:
as §1, §2, §3, §4

A further experiment has as its target ErbB2 (Homo sapiens, UniProt P04626). As to conditions: ATP close to KM; read-out: ErbB2 inhibition, IC50. The procedure:
as §1, §2, §3, §4

A further experiment concerns the target FGFR1 (Homo sapiens, UniProt P11362). As to conditions: ATP close to KM; read-out: FGFR1 inhibition, IC50. The procedure:
as §1, §2, §3, §4

Another experiment deals with Fyn (Homo sapiens, UniProt P06241). As to conditions: ATP close to KM; read-out: Fyn inhibition, IC50. The procedure:
as §1, §2, §3, §4

The next experiment concerns the target IRK (Homo sapiens, UniProt P06213). The following applies: ATP close to KM; read-out: IRK inhibition, IC50. The procedure: as §1, §2, §3, §4

Chain of EMK (Q7KZI7 whole entry): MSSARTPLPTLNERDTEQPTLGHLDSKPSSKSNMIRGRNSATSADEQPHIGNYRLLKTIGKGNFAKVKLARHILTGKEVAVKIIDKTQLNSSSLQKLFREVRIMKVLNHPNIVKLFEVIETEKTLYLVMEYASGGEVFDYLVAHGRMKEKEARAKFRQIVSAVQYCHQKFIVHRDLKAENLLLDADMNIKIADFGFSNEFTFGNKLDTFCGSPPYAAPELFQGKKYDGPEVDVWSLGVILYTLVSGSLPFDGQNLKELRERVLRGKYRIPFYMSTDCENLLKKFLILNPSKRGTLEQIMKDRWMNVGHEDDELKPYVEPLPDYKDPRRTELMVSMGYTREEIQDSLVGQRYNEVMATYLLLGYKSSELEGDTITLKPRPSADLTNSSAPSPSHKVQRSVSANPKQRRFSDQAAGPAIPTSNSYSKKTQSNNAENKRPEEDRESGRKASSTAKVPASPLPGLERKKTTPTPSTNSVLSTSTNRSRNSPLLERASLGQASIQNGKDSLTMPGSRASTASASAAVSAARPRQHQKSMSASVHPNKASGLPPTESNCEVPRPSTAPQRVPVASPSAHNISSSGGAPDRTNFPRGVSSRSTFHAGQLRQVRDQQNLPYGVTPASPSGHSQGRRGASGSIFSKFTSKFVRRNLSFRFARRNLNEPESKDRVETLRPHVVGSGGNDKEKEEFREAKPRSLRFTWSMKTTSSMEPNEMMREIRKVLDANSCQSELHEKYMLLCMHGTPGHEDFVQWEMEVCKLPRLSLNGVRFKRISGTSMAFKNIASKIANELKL
Chain of FGFR1 (P11362 22-822): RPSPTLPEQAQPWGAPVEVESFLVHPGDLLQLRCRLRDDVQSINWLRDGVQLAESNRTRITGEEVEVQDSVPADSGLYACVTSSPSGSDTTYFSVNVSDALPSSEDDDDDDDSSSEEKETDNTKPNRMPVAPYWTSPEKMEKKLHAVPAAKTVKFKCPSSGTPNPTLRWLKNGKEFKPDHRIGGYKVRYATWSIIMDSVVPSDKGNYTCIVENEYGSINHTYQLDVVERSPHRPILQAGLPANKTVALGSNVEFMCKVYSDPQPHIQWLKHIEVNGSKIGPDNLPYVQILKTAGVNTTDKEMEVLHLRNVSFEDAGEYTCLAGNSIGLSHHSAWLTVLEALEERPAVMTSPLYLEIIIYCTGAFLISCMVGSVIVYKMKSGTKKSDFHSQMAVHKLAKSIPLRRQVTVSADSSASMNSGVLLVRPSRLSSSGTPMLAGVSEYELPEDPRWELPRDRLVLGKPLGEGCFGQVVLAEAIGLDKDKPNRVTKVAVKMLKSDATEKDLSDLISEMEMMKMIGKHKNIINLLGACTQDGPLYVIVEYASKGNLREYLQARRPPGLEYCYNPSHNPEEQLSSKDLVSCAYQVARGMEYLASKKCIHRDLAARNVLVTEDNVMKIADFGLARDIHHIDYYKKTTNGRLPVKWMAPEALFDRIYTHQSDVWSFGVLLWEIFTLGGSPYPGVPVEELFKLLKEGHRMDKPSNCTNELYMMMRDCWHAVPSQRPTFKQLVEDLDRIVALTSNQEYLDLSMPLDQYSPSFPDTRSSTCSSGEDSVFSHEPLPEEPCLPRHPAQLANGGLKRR
Chain of ErbB2 (P04626 23-1255): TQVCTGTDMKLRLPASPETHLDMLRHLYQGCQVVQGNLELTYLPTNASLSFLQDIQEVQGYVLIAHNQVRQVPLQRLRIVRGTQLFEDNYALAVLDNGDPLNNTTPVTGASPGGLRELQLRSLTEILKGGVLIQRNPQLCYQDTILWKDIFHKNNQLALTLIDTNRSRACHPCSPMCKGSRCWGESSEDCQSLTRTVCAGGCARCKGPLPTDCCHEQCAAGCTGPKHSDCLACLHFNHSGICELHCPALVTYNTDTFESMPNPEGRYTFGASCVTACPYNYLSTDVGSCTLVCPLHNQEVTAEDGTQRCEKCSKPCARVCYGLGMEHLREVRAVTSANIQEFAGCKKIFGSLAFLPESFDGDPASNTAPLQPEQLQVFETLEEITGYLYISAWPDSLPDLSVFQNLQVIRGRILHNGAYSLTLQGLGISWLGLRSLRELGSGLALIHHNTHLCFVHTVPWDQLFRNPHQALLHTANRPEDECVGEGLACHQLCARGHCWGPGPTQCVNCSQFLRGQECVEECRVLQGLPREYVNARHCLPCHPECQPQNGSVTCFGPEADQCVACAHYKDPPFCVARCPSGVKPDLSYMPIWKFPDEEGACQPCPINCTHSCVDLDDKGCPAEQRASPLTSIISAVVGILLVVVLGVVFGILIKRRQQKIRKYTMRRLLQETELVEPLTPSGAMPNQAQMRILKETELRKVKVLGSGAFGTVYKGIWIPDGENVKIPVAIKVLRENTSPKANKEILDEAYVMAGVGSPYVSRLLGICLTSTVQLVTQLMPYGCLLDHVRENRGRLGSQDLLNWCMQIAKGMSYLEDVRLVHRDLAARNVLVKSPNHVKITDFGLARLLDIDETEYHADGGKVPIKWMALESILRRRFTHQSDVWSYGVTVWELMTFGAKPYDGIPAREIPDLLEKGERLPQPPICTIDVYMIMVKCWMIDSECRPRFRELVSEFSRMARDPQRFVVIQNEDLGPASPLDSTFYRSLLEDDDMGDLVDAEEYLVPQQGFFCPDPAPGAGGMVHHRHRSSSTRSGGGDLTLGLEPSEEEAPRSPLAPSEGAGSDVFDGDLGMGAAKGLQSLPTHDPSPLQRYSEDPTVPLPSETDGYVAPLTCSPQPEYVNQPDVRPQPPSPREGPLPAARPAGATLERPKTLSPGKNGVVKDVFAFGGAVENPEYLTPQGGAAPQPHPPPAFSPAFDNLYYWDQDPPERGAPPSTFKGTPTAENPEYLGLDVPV
Chain of EphA2R (P29317 24-976): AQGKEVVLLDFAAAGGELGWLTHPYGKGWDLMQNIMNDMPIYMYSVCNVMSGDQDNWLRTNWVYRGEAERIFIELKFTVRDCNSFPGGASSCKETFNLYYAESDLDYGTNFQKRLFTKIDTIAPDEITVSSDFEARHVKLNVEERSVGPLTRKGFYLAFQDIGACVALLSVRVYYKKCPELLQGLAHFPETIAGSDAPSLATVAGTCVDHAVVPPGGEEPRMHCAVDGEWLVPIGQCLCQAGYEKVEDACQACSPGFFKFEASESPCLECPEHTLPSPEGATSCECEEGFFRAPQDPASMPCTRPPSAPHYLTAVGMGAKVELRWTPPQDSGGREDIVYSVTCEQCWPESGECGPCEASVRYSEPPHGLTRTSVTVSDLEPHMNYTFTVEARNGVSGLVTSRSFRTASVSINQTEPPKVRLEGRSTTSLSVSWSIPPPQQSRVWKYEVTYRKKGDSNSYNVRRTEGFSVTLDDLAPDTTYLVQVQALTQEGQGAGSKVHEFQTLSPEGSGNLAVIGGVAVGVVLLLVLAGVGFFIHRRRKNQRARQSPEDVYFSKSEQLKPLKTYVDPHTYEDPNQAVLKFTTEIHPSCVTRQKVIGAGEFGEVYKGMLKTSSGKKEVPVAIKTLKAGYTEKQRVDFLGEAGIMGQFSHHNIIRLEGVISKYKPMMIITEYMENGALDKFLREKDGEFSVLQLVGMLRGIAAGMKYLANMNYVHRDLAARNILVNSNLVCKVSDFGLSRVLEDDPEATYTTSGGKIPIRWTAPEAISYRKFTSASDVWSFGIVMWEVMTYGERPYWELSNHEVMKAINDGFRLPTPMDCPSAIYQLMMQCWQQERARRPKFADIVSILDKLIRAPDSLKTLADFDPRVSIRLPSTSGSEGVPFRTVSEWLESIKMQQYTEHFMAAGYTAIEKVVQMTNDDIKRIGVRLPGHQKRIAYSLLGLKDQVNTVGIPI
Chain of Fyn (P06241 whole entry): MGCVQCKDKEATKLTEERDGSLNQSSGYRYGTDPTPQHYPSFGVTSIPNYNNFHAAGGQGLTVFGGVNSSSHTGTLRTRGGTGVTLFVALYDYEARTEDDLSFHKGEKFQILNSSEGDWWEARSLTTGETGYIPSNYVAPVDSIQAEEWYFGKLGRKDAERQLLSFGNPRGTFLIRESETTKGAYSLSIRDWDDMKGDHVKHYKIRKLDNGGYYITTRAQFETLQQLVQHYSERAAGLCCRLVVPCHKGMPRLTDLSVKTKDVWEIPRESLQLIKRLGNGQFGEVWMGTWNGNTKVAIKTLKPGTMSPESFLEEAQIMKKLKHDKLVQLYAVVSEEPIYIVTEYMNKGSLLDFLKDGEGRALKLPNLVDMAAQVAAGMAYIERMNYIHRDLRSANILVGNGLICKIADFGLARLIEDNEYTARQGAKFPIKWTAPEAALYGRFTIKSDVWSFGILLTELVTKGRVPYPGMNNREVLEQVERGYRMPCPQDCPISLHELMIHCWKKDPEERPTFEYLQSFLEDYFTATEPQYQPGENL

Consider `NC(=O)c1nc(-c2cccc3ccccc23)cnc1N` [Example 2, 3-Amino-6-naphthalen-1-ylpyrazine-2-carboxamide], for which the IC50 (as a rule, the concentration at which inhibition is half-maximal) on EMK is 1 to 10 µM; on EphA2R, no less than 10 µM; on EphB4, no less than 10 µM; at ErbB2, no less than 10 µM; on FGFR1, 1 to 10 µM; at Fyn, 1 to 10 µM. Moreover, on IRK, the IC50 is no less than 10 µM.
